Each structure is given as a SMILES string.

Results on 19 compounds are retold here after patent US20230365592A1 (Agios Pharmaceuticals, Inc., priority 2022, published 2023).

This assay deals with T1, human PAH with the R408W mutation (Homo sapiens, UniProt P00439, R408W).
T1 construct: expressed in transfected cells
T1 sequence (P00439 1-452 R408W): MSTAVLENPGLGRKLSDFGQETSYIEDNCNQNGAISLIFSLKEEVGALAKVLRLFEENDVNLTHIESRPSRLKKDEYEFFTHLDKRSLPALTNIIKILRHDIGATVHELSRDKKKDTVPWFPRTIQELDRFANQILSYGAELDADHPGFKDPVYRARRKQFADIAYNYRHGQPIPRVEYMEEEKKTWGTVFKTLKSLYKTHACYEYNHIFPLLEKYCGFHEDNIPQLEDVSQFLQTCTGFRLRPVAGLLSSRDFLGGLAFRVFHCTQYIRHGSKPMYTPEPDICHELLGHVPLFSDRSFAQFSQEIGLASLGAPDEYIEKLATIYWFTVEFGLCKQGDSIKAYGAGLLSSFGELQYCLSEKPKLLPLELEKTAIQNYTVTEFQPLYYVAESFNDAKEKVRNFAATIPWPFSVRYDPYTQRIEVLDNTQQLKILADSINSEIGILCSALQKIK
Kind of assay: Cell Based Phenylalanine Flux Assay.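 Note: after compound treatment, cells received sepiapterin plus isotope-labelled Phenylalanine for 4 hours, then labelled Tyrosine in the medium was quantified, 10-point 2-fold dilution series run in duplicate.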 As to conditions: A375 cells expressing human R408W PAH; 24 hrs compound incubation; 13C-Tyrosine by LC-MS; average where tested multiple times; read-out: AC50.
For orientation: AC50 means the concentration at which the activity in the assay is half-maximal. As to `CC(C)(O)c1nc(C(F)F)c(C(=O)N2CCc3[nH]cnc3[C@H]2c2cc3c(F)cccn3n2)o1` [Example 714, (S)-(4-(difluoromethyl)-2-(2-hydroxypropan-2-yl)oxazol-5-yl)(4-(4-fluoropyrazolo[1,5-a]pyridin-2-yl)-6,7-dihydro-1H-imidazo[4,5-c]pyridin-5(4H)-yl)methanone], the AC50 is less than 0.5 µM. As for `CC(C)(O)c1nc(C(F)F)c(C(=O)N2CCc3[nH]cnc3[C@@H]2c2cc3c(F)cccn3n2)o1` [Example 715, (R)-(4-(difluoromethyl)-2-(2-hydroxypropan-2-yl)oxazol-5-yl)(4-(4-fluoropyrazolo[1,5-a]pyridin-2-yl)-6,7-dihydro-1H-imidazo[4,5-c]pyridin-5(4H)-yl)methanone], the AC50 is greater than 5 µM. On to `O=C(c1ccnn1C(F)(F)F)N1CCc2[nH]cnc2[C@H]1c1cc2ccccn2n1` [Example 716, (S)-(4-(pyrazolo[1,5-a]pyridin-2-yl)-6,7-dihydro-1H-imidazo[4,5-c]pyridin-5(4H)-yl)(1-(trifluoromethyl)-1H-pyrazol-5-yl)methanone], for which the AC50 was less than 0.5 µM.

In the case of `O=C(c1ccnn1C(F)(F)F)N1CCc2[nH]cnc2[C@@H]1c1cc2ccccn2n1` [Example 717, (R)-(4-(pyrazolo[1,5-a]pyridin-2-yl)-6,7-dihydro-1H-imidazo[4,5-c]pyridin-5(4H)-yl)(1-(trifluoromethyl)-1H-pyrazol-5-yl)methanone], the AC50 lay within 0.5 to 1 µM. As for `Cn1ccc(-c2nnc(C(=O)N3CCc4[nH]cnc4[C@H]3c3cc4c(Cl)cccn4n3)o2)n1` [Example 718, (S)-(4-(4-chloropyrazolo[1,5-a]pyridin-2-yl)-6,7-dihydro-1H-imidazo[4,5-c]pyridin-5(4H)-yl)(5-(1-methyl-1H-pyrazol-3-yl)-1,3,4-oxadiazol-2-yl)methanone], the AC50 is less than 0.5 µM. Under `Cn1ccc(-c2nnc(C(=O)N3CCc4[nH]cnc4[C@@H]3c3cc4c(Cl)cccn4n3)o2)n1` [Example 719, (R)-(4-(4-chloropyrazolo[1,5-a]pyridin-2-yl)-6,7-dihydro-1H-imidazo[4,5-c]pyridin-5(4H)-yl)(5-(1-methyl-1H-pyrazol-3-yl)-1,3,4-oxadiazol-2-yl)methanone] stands greater than 5 µM; under `CC(C)(O)c1nc(Cl)c(C(=O)N2CCc3[nH]cnc3[C@H]2c2cc3c(Cl)cccn3n2)o1` [Example 720, (S)-(4-chloro-2-(2-hydroxypropan-2-yl)oxazol-5-yl)(4-(4-chloropyrazolo[1,5-a]pyridin-2-yl)-6,7-dihydro-1H-imidazo[4,5-c]pyridin-5(4H)-yl)methanone], less than 0.5 µM. As to `CC(C)(O)c1nc(Cl)c(C(=O)N2CCc3[nH]cnc3[C@@H]2c2cc3c(Cl)cccn3n2)o1` [Example 721, (R)-(4-chloro-2-(2-hydroxypropan-2-yl)oxazol-5-yl)(4-(4-chloropyrazolo[1,5-a]pyridin-2-yl)-6,7-dihydro-1H-imidazo[4,5-c]pyridin-5(4H)-yl)methanone], the AC50 is greater than 5 µM. For the compound `CC(C)(O)c1nc(Br)c(C(=O)N2CCc3[nH]cnc3[C@H]2c2cc3c(Cl)cccn3n2)o1` [Example 722, (S)-(4-bromo-2-(2-hydroxypropan-2-yl)oxazol-5-yl)(4-(4-chloropyrazolo[1,5-a]pyridin-2-yl)-6,7-dihydro-1H-imidazo[4,5-c]pyridin-5(4H)-yl)methanone], the AC50 is less than 0.5 µM. Take `CC(C)(O)c1nc(Br)c(C(=O)N2CCc3[nH]cnc3[C@@H]2c2cc3c(Cl)cccn3n2)o1` [Example 723, (R)-(4-bromo-2-(2-hydroxypropan-2-yl)oxazol-5-yl)(4-(4-chloropyrazolo[1,5-a]pyridin-2-yl)-6,7-dihydro-1H-imidazo[4,5-c]pyridin-5(4H)-yl)methanone]: the AC50 lay in the range of 1 to 5 µM. For the compound `Cc1nc(C(C)(C)O)oc1C(=O)N1CCc2[nH]cnc2[C@H]1c1cc2c(Cl)cccn2n1` [Example 724, (S)-(4-(4-chloropyrazolo[1,5-a]pyridin-2-yl)-6,7-dihydro-1H-imidazo[4,5-c]pyridin-5(4H)-yl)(2-(2-hydroxypropan-2-yl)-4-methyloxazol-5-yl)methanone], the AC50 was less than 0.5 µM. Consider `Cc1nc(C(C)(C)O)oc1C(=O)N1CCc2[nH]cnc2[C@@H]1c1cc2c(Cl)cccn2n1` [Example 725, (R)-(4-(4-chloropyrazolo[1,5-a]pyridin-2-yl)-6,7-dihydro-1H-imidazo[4,5-c]pyridin-5(4H)-yl)(2-(2-hydroxypropan-2-yl)-4-methyloxazol-5-yl)methanone], for which the AC50 is greater than 5 µM. As to `Cc1nc([C@@H](C)O)oc1C(=O)N1CCc2[nH]cnc2[C@H]1c1cc2c(F)cccn2n1` [Example 726, ((S)-4-(4-fluoropyrazolo[1,5-a]pyridin-2-yl)-6,7-dihydro-1H-imidazo[4,5-c]pyridin-5(4H)-yl)(2-((R)-1-hydroxyethyl)-4-methyloxazol-5-yl)methanone], the AC50 was 0.5 to 1 µM. Under `Cc1nc([C@@H](C)O)oc1C(=O)N1CCc2[nH]cnc2[C@@H]1c1cc2c(F)cccn2n1` [Example 727, ((R)-4-(4-fluoropyrazolo[1,5-a]pyridin-2-yl)-6,7-dihydro-1H-imidazo[4,5-c]pyridin-5(4H)-yl)(2-((R)-1-hydroxyethyl)-4-methyloxazol-5-yl)methanone] stands 1 to 5 µM; under `Cn1cc(-c2nnc(C(=O)N3CCc4[nH]cnc4[C@H]3c3cc4c(F)cccn4n3)o2)cn1` [Example 728, (S)-(4-(4-fluoropyrazolo[1,5-a]pyridin-2-yl)-6,7-dihydro-1H-imidazo[4,5-c]pyridin-5(4H)-yl)(5-(1-methyl-1H-pyrazol-4-yl)-1,3,4-oxadiazol-2-yl)methanone], less than 0.5 µM. Take `Cn1ccc(-c2nnc(C(=O)N3CCc4[nH]cnc4[C@@H]3c3cc4c(F)cccn4n3)o2)n1` [Example 731, (R)-(4-(4-fluoropyrazolo[1,5-a]pyridin-2-yl)-6,7-dihydro-1H-imidazo[4,5-c]pyridin-5(4H)-yl)(5-(1-methyl-1H-pyrazol-3-yl)-1,3,4-oxadiazol-2-yl)methanone]: the AC50 is greater than 5 µM. In the case of `O=C(c1nnc(-c2ccccn2)o1)N1CCc2[nH]cnc2[C@H]1c1cc2c(F)cccn2n1` [Example 733, (S)-(4-(4-fluoropyrazolo[1,5-a]pyridin-2-yl)-6,7-dihydro-1H-imidazo[4,5-c]pyridin-5(4H)-yl)(5-(pyridin-2-yl)-1,3,4-oxadiazol-2-yl)methanone], the AC50 is less than 0.5 µM. As to `O=C(c1nnc(-c2ccccn2)o1)N1CCc2[nH]cnc2[C@@H]1c1cc2c(Cl)cccn2n1` [Example 734, (R)-(4-(4-chloropyrazolo[1,5-a]pyridin-2-yl)-6,7-dihydro-1H-imidazo[4,5-c]pyridin-5(4H)-yl)(5-(pyridin-2-yl)-1,3,4-oxadiazol-2-yl)methanone], the AC50 is greater than 5 µM.

In the case of `O=C(c1nnc(-c2ccccn2)o1)N1CCc2[nH]cnc2[C@H]1c1cc2c(Cl)cccn2n1` [Example 735, (S)-(4-(4-chloropyrazolo[1,5-a]pyridin-2-yl)-6,7-dihydro-1H-imidazo[4,5-c]pyridin-5(4H)-yl)(5-(pyridin-2-yl)-1,3,4-oxadiazol-2-yl)methanone], the AC50 was less than 0.5 µM.
